Measured values from patent US20260109690A1, “HDAC6 INHIBITORS AND METHOD OF THEIR USE” (Baerenkraft Therapeutics, LLC., priority 2024, published 2026).
Where two headings read alike, the source gives them in different places.

Legend:
HDAC6 = target: T1, HDAC6 (Homo sapiens, UniProt Q9UBN7); test: Biochemical HDAC6 inhibitory activity assay
T1 sequence (Q9UBN7 1-1215): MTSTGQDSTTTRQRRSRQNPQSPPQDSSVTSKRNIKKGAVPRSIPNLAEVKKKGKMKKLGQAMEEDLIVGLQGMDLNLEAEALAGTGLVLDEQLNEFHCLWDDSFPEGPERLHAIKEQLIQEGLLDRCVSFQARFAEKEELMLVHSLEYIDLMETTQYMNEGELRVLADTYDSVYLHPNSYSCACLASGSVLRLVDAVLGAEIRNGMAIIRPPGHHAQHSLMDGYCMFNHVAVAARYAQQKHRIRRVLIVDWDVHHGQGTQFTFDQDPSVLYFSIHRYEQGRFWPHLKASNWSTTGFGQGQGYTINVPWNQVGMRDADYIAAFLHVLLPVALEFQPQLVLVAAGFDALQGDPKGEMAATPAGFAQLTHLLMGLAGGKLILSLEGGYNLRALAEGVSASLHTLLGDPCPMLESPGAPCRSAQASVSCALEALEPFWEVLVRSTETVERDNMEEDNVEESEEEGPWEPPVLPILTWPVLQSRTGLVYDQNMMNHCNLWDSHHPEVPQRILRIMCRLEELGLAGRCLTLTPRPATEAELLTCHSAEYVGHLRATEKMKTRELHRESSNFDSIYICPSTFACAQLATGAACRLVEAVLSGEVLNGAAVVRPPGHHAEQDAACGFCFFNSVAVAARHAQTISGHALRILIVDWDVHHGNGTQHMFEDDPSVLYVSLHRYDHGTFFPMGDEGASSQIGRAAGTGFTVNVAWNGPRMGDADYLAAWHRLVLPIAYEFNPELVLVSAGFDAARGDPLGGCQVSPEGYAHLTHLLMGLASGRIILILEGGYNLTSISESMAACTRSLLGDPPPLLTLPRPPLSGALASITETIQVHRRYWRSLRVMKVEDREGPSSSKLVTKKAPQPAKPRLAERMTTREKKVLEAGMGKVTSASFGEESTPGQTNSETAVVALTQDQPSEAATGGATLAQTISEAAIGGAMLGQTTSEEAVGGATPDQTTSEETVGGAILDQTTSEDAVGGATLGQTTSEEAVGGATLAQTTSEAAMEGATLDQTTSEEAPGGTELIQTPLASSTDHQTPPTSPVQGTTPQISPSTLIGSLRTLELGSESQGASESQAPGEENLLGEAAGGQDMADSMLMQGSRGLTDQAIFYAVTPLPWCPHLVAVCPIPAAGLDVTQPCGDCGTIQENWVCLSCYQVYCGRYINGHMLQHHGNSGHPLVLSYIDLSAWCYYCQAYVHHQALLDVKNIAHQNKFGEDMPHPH

[1] = test system: B6SJL.SOD1-G93A transgenic mouse model of amyotrophic lateral sclerosis; test: ALS mouse model: wire suspension test (inverted screen test); type: in vivo, mice
Description: Wire hang test was used to measure the muscle strength of animals. During the test, the animals were placed on the top of a wire lid of a housing cage. Then the lid was inverted and slightly shaken to ensure the grip of animal on the lid. Latency to fall(s) off the lid was recorded. A total of 3 trials were recorded and averaged to analyze the data. A cutoff time of 90 s was used to end the trial.
Note: Behavioral tests were performed once in two weeks, i.e. at week 10, 12, 14 and 16.

[2] = ALS mouse model: body weight; type: in vivo; details: SOD1-G93A mice, in g (unit assumed)
Description: Mice were weighed and randomized into different groups and age matched control groups were kept as such. Test compound I-8 was freshly formulated and administered to the respective animals of each group as per body weight. Animals in G1 and G2 were administered with vehicle. G3 and G4 group animals were dosed with compound I-8 at the dose of 15 mg/kg and 30 mg/kg respectively, per orally; Q.D. G4 animals were administered 30 mg/kg dose until day 34 and 50 mg/kg from day 35 onwards.
The body weight of each animal was recorded at the time of randomization and once in 2 days during the study period.

HDAC8 = target: T2, HDAC8 (Homo sapiens, UniProt Q9BY41); test: HDAC selectivity panel: HDAC8; type: biochemical
T2 sequence (Q9BY41 1-377): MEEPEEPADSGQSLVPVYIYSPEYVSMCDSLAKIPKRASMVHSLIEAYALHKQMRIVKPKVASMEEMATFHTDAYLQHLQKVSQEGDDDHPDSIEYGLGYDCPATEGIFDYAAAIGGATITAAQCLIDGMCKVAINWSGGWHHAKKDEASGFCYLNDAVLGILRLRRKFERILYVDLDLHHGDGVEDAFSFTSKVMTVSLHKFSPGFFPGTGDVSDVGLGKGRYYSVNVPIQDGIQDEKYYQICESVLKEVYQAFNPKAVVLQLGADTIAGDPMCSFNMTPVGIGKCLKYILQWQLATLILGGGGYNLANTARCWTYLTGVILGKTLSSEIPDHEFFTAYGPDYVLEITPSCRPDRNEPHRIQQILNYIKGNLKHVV

For `CC1CN(Cc2ccc(Nc3nccc(-c4ccc(C(=O)NO)cc4)n3)cc2F)CCO1` (racemic) [Compound I-8, 4-(2-((3-fluoro-4-((2-methylmorpholino)methyl)phenyl)amino)pyrimidin-4-yl)-N-hydroxybenzamide], the IC50 (HDAC6; 10-dose IC50 mode, in singlet, 3-fold serial dilution, test compound starting at 100 millimolar, read-out: HDAC6 IC50) was 7.32 nM, the EC50 (HDAC6; 10-dose in vitro test (FIG. 1)) was 7.32 nM and the “selectivity for HDAC6 compared to other HDACs” value (HDAC6; against 11 HDACs) was “marked selectivity for HDAC6”. The IC50 (HDAC6; read-out: HDAC6 IC50) was less than 1000 nM, the “Wire Suspension test latency to fall” value ([1]; G3 15 mg/kg p.o. QD, Week 10) was 49.70 ± 8.667 s and the “Wire Suspension test latency to fall” value ([1]; G3 15 mg/kg p.o. QD, Week 12) was 37.48 ± 9.92 s. For the same molecule, the “Wire Suspension test latency to fall” value ([1]; G3 15 mg/kg p.o. QD, Week 14) was 19.22 ± 7.18 ^ seconds, the “Wire Suspension test latency to fall” value ([1]; G3 15 mg/kg p.o. QD, Week 16) was 3.71 ± 0.73 s and the “latency to fall of the wire vs. G2” value ([1]; G3 15 mg/kg, week 14) was “significant reduction in latency to fall of the wire”. For the same molecule, the “Wire Suspension test latency to fall” value ([1]; G4 30 mg/kg (50 mg/kg from day 34) p.o. QD, Week 10) was 60.38 ± 10.00 s, the “Wire Suspension test latency to fall” value ([1]; G4 30 mg/kg (50 mg/kg from day 34) p.o. QD, Week 12) was 45.46 ± 7.98 s and the “Wire Suspension test latency to fall” value ([1]; G4 30 mg/kg (50 mg/kg from day 34) p.o. QD, Week 14) was 28.13 ± 5.38 ^ seconds. The “Wire Suspension test latency to fall” value ([1]; G4 30 mg/kg (50 mg/kg from day 34) p.o. QD, Week 16) was 6.46 ± 1.58 s, the “latency to fall of the wire vs. G2” value ([1]; G4, week 14) was “significant reduction in latency to fall of the wire” and the Body weight ([2]; G3 15 mg/kg p.o. QD, Day 1) was 25.99 ± 0.73. It also gave a Body weight ([2]; G3 15 mg/kg p.o. QD, Day 7) of 25.97 ± 0.70, a Body weight ([2]; G3 15 mg/kg p.o. QD, Day 13) of 26.54 ± 0.52 and a Body weight ([2]; G3 15 mg/kg p.o. QD, Day 21) of 26.81 ± 0.45. The Body weight ([2]; G3 15 mg/kg p.o. QD, Day 27) was 26.51 ± 0.46, the Body weight ([2]; G3 15 mg/kg p.o. QD, Day 35) was 26.76 ± 0.43 and the Body weight ([2]; G3 15 mg/kg p.o. QD, Day 43) was 26.60 ± 0.50. It also gave a Body weight ([2]; G3 15 mg/kg p.o. QD, Day 49) of 25.47 ± 0.62, a Body weight ([2]; G3 15 mg/kg p.o. QD, Day 52) of 24.52 ± 0.68 and a Body weight ([2]; G4 30 mg/kg (50 mg/kg from day 34) p.o. QD, Day 1) of 25.66 ± 0.48. The Body weight ([2]; G4 30 mg/kg (50 mg/kg from day 34) p.o. QD, Day 7) was 25.64 ± 0.40, the Body weight ([2]; G4 30 mg/kg (50 mg/kg from day 34) p.o. QD, Day 13) was 26.14 ± 0.52 and the Body weight ([2]; G4 30 mg/kg (50 mg/kg from day 34) p.o. QD, Day 21) was 27.53 ± 0.60. The Body weight ([2]; G4 30 mg/kg (50 mg/kg from day 34) p.o. QD, Day 27) was 27.29 ± 0.52, the Body weight ([2]; G4 30 mg/kg (50 mg/kg from day 34) p.o. QD, Day 35) was 26.55 ± 0.57 and the Body weight ([2]; G4 30 mg/kg (50 mg/kg from day 34) p.o. QD, Day 43) was 26.04 ± 0.60. It also gave a Body weight ([2]; G4 30 mg/kg (50 mg/kg from day 34) p.o. QD, Day 49) of 24.30 ± 0.96, a Body weight ([2]; G4 30 mg/kg (50 mg/kg from day 34) p.o. QD, Day 52 (n = 6-8)) of 24.75 ± 0.45 and an IC50 (HDAC8) of 102 nM.
Molecule `C[C@@H]1CN(Cc2ccc(Nc3nccc(-c4ccc(C(=O)NO)cc4)n3)cc2F)CCO1` [Compound I-16, (R)-4-(2-((3-fluoro-4-((2-methylmorpholino)methyl)phenyl)amino)pyrimidin-4-yl)-N-hydroxybenzamide] has an IC50 (HDAC6; read-out: HDAC6 IC50) of less than 1000 nM and an IC50 (HDAC6; unit inferred, read-out: IC50 against HDAC6 (FIG. 3)) of 12.4 nM.
